Test results taken from publication PMC3366211, “Leishmanicidal Activity of Nine Novel Flavonoids from Delphinium staphisagria” (The Scientific World Journal, 2012).
Read-outs that look alike come from different tables or passages of the source.

Experiments:
[1] = tested on: L. infantum promastigotes; experiment: Metabolite excretion (1H-NMR); format: cell-based, Leishmania infantum; details: IC25, 96 hours, vs control
Method: Cultures of L. infantum and L. braziliensis promastigotes (initial concentration 5 × 10^5 cells/mL) received IC25 concentrations of the compounds (except for control cultures). After incubation for 96 hours at 28°C, the cells were centrifuged at 400 g for 10 min. Then supernatants were collected to determine the excreted metabolites using ^1H-NMR, and, eventually, chemical displacements were expressed in parts per million (ppm), using sodium 2,2-dimethyl-2-silapentane-5-sulphonate as the reference signal. The chemical displacements used to identify the respective metabolites were consistent with those described by Fernández-Becerra et al.

[2] = tested on: L. braziliensis promastigote forms; experiment: Promastigote forms assay; format: cell-based, Leishmania braziliensis; details: for SI Promastigote forms: IC50 macrophages/IC50 parasite form; for IC50: 72 h; for number of times that compound SI exceeds the reference drug SI, Promastigote forms: in brackets, reference Glucantime
Method: (§1) The compounds obtained were dissolved in the culture medium, at dosages of 100, 50, 25, 10, and 1 μM. The effects of each compound against promastigote forms were tested at 72 hours using a Neubauer haemocytometric chamber. The antileishmanial effect is expressed as the IC50, that is, the concentration required to give 50% inhibition, calculated by linear regression analysis from the Kc values of the concentrations employed.

[3] = tested on: L. braziliensis promastigotes; experiment: Ultrastructural alterations (TEM); format: cell-based, Leishmania braziliensis; details: IC25, 96 hours
Method: (§2) The parasites were cultured at a density of 5 × 10^5 cells/mL in MTL medium, and the cultures contained drugs at the IC25 concentration.
(§3) After 96 hours, those cultures were centrifuged at 400 g for 10 min, and the pellets produced were washed in PBS and then mixed with 2% (v/v) P-formaldehyde-glutaraldehyde in 0.05 M cacodylate buffer (pH 7.4) for 4 hours at 4°C. After that, the pellets were prepared for TEM employing the technique of González et al..

L. braziliensis = experiment: Infection assay in J774.2 macrophages; format: cell-based, Leishmania braziliensis; details: IC25 concentration; for infection rate decrease, percentage of inhibition capacity: with respect to control
Method: (§4) J774.2 macrophage cells were grown under the same conditions expressed in amastigote forms assay during two days. Afterwards, the cells were infected in vitro with promastigote forms of L. infantum and L. braziliensis, at a ratio of 10 : 1. The drugs (IC25 concentrations) were added immediately after infection and were incubated for 12 hours at 37°C in 5% CO2. The nonphagocytosed parasites and the drugs were removed by washing, and then the infected cultures were grown for 10 days in fresh medium. Fresh culture medium was added every 48 h. The drug activity was determined from the percentage of infected cells and the number of amastigotes per infected cell (in treated and untreated cultures) in methanol-fixed and Giemsa-stained preparations. The percentage of infected cells and the mean number of amastigotes per infected cell were determined by analyzing 200 host cells distributed in randomly chosen microscopic fields. Values are the average of three separate determinations.

[4] = tested on: L. infantum promastigotes; experiment: Ultrastructural alterations (TEM); format: cell-based, Leishmania infantum; details: IC25, 96 hours
Method: as §2, §3

[5] = tested on: L. braziliensis intracellular amastigote forms; experiment: Intracellular amastigote forms assay in J774.2 macrophages; format: cell-based, Leishmania braziliensis; details: for SI Intracellular amastigote forms / number of times that compound SI exceeds the reference drug SI, Intracellular amastigote forms: L. braziliensis; for SI Intracellular amastigote forms: IC50 macrophages/IC50 parasite form; for number of times that compound SI exceeds the reference drug SI, Intracellular amastigote forms: in brackets, reference Glucantime; for IC50: L. braziliensis in J774.2 macrophages, 72 h
Method: (§5) Cells were seeded at a density of 1 × 10^4 cells/well in 24-well microplates (Nunc) with rounded coverslips on the bottom and cultured for 2 days. Afterwards the cells were infected in vitro with promastigote forms of L. infantum and L. braziliensis, at a ratio of 10 : 1 during 24 hours. The non-phagocytosed parasites were removed by washing, and then the drugs (at 1, 10, 25, 50, 100 μM) were added. Macrophages with the drugs were incubated for 72 hours at 37°C in 5% CO2.
(§6) Drug activity was determined on the basis of number of amastigotes in treated and untreated cultures in methanol-fixed and Giemsa-stained preparations. The number of amastigotes was determined by analyzing 200 host cells distributed in randomly chosen microscopic fields. The antileishmanial effect is expressed as the IC50 values are the means of three separate determinations.

[6] = tested on: L. infantum promastigote forms; experiment: Promastigote forms assay; format: cell-based, Leishmania infantum; details: for SI Promastigote forms: IC50 macrophages/IC50 parasite form; for IC50: 72 h; for times SI exceeds the reference drug SI (all forms): extracellular and intracellular forms; for times SI exceeds the reference drug SI (all forms) / number of times that compound SI exceeds the reference drug SI, Promastigote forms: reference Glucantime; for number of times that compound SI exceeds the reference drug SI, Promastigote forms: in brackets
Method: as §1

[7] = tested on: L. infantum intracellular amastigote forms; experiment: Intracellular amastigote forms assay in J774.2 macrophages; format: cell-based, Leishmania infantum; details: for SI Intracellular amastigote forms / number of times that compound SI exceeds the reference drug SI, Intracellular amastigote forms: L. infantum; for SI Intracellular amastigote forms: IC50 macrophages/IC50 parasite form; for number of times that compound SI exceeds the reference drug SI, Intracellular amastigote forms: in brackets, reference Glucantime; for IC50: L. infantum in J774.2 macrophages, 72 h
Method: as §5, §6

[8] = tested on: L. braziliensis axenic amastigote forms; experiment: Axenic amastigote forms assay; format: cell-based, Leishmania braziliensis; details: for IC50: 48 hours per method (72 h); for SI Axenic amastigote forms: IC50 macrophages/IC50 parasite form; for number of times that compound SI exceeds the reference drug SI, Axenic amastigote forms: in brackets, reference Glucantime
Method: (§7) Axenic amastigotes forms of L. infantum and L. braziliensis were cultured following the methodology described previously by Moreno et al.. Thus, promastigote transformation to amastigotes was obtained after three days of culture in M199 medium (Invitrogen, Leiden, The Netherlands) supplemented with 10% heat-inactivated FCS, 1 g/L β-alanine, 100 mg/L L-asparagine, 200 mg/L sacarose, 50 mg/L sodium pyruvate, 320 mg/L malic acid, 40 mg/L fumaric acid, 70 mg/L succinic acid, 200 mg/L α-ketoglutaric acid, 300 mg/L citric acid, 1.1 g/L sodium bicarbonate, 5 g/L MES, 0.4 mg/L hemin, and 10 mg/L gentamicin pH 5.4 at 37°C. The effect of each compound against axenic amastigotes forms was tested at 48 hours using a Neubauer haemocytometric chamber. The antileishmanial effect is expressed as the IC50.

[9] = tested on: L. infantum axenic amastigote forms; experiment: Axenic amastigote forms assay; format: cell-based, Leishmania infantum; details: for SI Axenic amastigote forms: IC50 macrophages/IC50 parasite form; for IC50: 48 hours per method (72 h); for number of times that compound SI exceeds the reference drug SI, Axenic amastigote forms: in brackets, reference Glucantime
Method: as §7

L. infantum = experiment: Infection assay in J774.2 macrophages; format: cell-based, Leishmania infantum; details: IC25 concentration; for infection rate decrease, percentage of inhibition capacity: with respect to control
Method: as §4

J774.2 macrophages = experiment: Cytotoxicity test for macrophages (flow cytometry); format: cell-based, BALB/c rat; details: J774.2 macrophages after 72 h of culture, read-out: Macrophage toxicity IC50
Method: J774.2 macrophages (ECACC number 91051511) were originally obtained from a tumour in a female BALB/c […] in 1968. The cytotoxicity test for macrophages was performed according to the methodology of González et al.. After 72 hours of treatment, cell viability was determined by flow cytometry. Thus, 100 μL/well of propidium iodide solution ([…]) was added and incubated for 10 min at 28°C in darkness. Afterwards, 100 μL/well of fluorescein diacetate (100 ng/mL) was added and incubated under the same conditions. Finally, the cells were recovered by centrifugation at 400 g for 10 min and the precipitate washed with phosphate buffered saline (PBS). Flow cytometric analysis was performed with a FACSVantage flow cytometer (Becton Dickinson). The percentage viability was calculated in comparison with the control culture. The IC50 was calculated using linear regression analysis from the Kc values of the concentrations employed.

Molecule	change in excreted catabolites [1]	SI Promastigote forms [2]	IC50 ([2]; Leishmania braziliensis)	number of times that compound SI exceeds the reference drug SI, Promastigote forms [2]	ultrastructural alterations by TEM [3]	decrease of average number of amastigotes per infected macrophage cell (L. braziliensis)	infection rate decrease, percentage of inhibition capacity (L. braziliensis)	ultrastructural alterations by TEM [4]	SI Intracellular amastigote forms [5]	number of times that compound SI exceeds the reference drug SI, Intracellular amastigote forms [5]	SI Promastigote forms [6]	times SI exceeds the reference drug SI (all forms) [6]	number of times that compound SI exceeds the reference drug SI, Promastigote forms [6]	SI Intracellular amastigote forms [7]	number of times that compound SI exceeds the reference drug SI, Intracellular amastigote forms [7]	SI Axenic amastigote forms [9]	number of times that compound SI exceeds the reference drug SI, Axenic amastigote forms [9]	decrease of average number of amastigotes per infected macrophage cell (L. infantum)	infection rate decrease, percentage of inhibition capacity (L. infantum)	SI Axenic amastigote forms [8]	further results
CC(=O)O[C@H]1[C@H](Oc2c(-c3ccc(O)cc3)oc3cc(O[C@@H]4O[C@H](CO)[C@@H](O)[C@H](O)[C@H]4O)cc(O)c3c2=O)O[C@H](CO)[C@@H](O)[C@@H]1O [Compound 5, 2′′-acetylpaeonoside]	an increase in the excretion of succinate, and acetate, followed by malate, alanine, lactate and ethanol	29.3	34.1 ± 6.6 µM	49	no significant changes compared to the control	72%	79%	produced similar effects	20.0	40	40.7	more than 50 times	51	26.9	54	33.6	56	45%	79%	–	IC50 ([5]; Leishmania braziliensis): 50.9 ± 6.2 µM; IC50 ([6]; Leishmania infantum): 24.6 ± 3.7 µM; IC50 ([7]; Leishmania infantum): 37.2 ± 3.5 µM; IC50 ([8]; Leishmania braziliensis): 19.4 ± 0.9 µM; IC50 ([9]; Leishmania infantum): 29.8 ± 2.2 µM
CC(=O)OC[C@H]1O[C@@H](Oc2c(-c3ccc(OC(C)=O)c(OC(C)=O)c3)oc3cc(O[C@@H]4O[C@@H](C)[C@H](OC(C)=O)[C@@H](OC(C)=O)[C@H]4OC(C)=O)cc(OC(C)=O)c3c2=O)[C@H](OC(C)=O)[C@@H](OC(C)=O)[C@@H]1OC(C)=O [Compound 9, petiolaroside decacetate]	–	15.2	32.3 ± 3.3 µM	25	–	–	–	–	23.3	47	21.5	< 50 times	27	15.8	32	22.8	38	–	–	19.9	IC50 ([5]; Leishmania braziliensis): 21 ± 1.3 µM; IC50 ([6]; Leishmania infantum): 22.8 ± 1.7 µM; IC50 ([7]; Leishmania infantum): 31 ± 1.7 µM; IC50 ([8]; Leishmania braziliensis): 24.6 ± 1.3 µM; number of times that compound SI exceeds the reference drug SI, Axenic amastigote forms [8]: 40; IC50 (J774.2 macrophages; Mus musculus, J774.2, 72 h): 490 ± 22.4 µM; IC50 ([9]; Leishmania infantum): 21.5 ± 0.9 µM
meglumine antimoniate [Glucantime, reference compound]	–	0.6	–	–	–	33%	58%	–	–	–	0.8	–	–	0.5	–	0.6	–	12%	63%	0.5	IC50 [2]: 25.6 ± 1.6 µM; IC50 [5]: 31.1 ± 3 µM; IC50 [6]: 18 ± 3.1 µM; IC50 [7]: 30 ± 2.7 µM; IC50 [8]: 30.4 ± 6.1 µM; IC50 (J774.2 macrophages): 15.2 ± 1.3 µM; IC50 [9]: 24.2 ± 2.6 µM
paeonoside [Compound 4]	an increase in the excretion of succinate, and acetate, followed by malate, alanine, lactate and ethanol	35.6	–	59	expansion of the kinetoplast, which appeared swollen	61%	68%	many of the parasites appeared dead, while another showed pronounced vacuolization	30.6	61	39.8	more than 50 times	50	31.8	64	37.2	62	37%	77%	42.2	IC50 [2]: 28.1 ± 5.2 µM; IC50 [5]: 32.7 ± 2.1 µM; IC50 [6]: 25.1 ± 1.9 µM; IC50 [7]: 31.4 ± 2 µM; IC50 [8]: 23.7 ± 2.1 µM; number of times that compound SI exceeds the reference drug SI, Axenic amastigote forms [8]: 84; IC50 (J774.2 macrophages): > 1000 µM; IC50 [9]: 26.9 ± 1.4 µM
